Test results taken from patent US9056875B2, “Substituted pyrazolo[3′,4′:4,5]thieno[2,3-C]pyridazin-3-amine analogs as positive allosteric modulators of the muscarinic acetylcholine receptor M4” (Vanderbilt University, priority 2012, dated 2015).

Tests used:
[1] = patients treated with AChE inhibitor; cited from earlier work
[2] = cited from earlier work
[3] = Alzheimer's disease patients; cited from earlier work
[4] = target: T1, mAChR rM4 (Rattus norvegicus, UniProt P08485); assay: mAChR rM4 cell-based functional assay (calcium mobilization, potentiation of EC20 acetylcholine response)
T1 construct: expressed in transfected cells
T1 sequence (P08485 1-478): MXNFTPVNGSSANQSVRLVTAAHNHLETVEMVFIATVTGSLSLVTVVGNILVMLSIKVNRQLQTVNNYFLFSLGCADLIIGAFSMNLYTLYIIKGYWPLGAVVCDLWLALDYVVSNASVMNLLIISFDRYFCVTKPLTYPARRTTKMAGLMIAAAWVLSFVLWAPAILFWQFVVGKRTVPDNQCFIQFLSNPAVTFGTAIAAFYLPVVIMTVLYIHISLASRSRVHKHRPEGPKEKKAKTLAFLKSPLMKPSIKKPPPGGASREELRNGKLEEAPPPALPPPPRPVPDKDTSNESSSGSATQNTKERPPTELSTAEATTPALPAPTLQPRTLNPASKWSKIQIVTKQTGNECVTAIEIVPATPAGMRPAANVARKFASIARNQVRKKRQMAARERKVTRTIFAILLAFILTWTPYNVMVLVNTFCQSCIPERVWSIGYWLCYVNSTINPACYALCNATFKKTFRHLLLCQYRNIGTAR
From the text: Chinese hamster ovary (CHO-K1) cells stably expressing rat (r)M1 were purchased from the American Type Culture Collection and cultured according to their indicated protocol. CHO cells stably expressing human (h)M2, hM3, and hM5 were described previously (Levey A I, et al., (1991) J Neurosci 11:3218-3226.); hM1 and hM4 cDNAs were purchased from Missouri S&T cDNA Resource; rM4 cDNA was provided by T. I. Bonner (National Institutes of Health, Bethesda, Md.). rM2 and rM3 were cloned from a rat brain cDNA library and sequence verified. hM1, rM2, rM3, hM4, and rM4 cDNAs were used to stably transfect CHO-K1 cells purchased from the American Type Culture Collection using Lipofectamine® 2000. To make stable rM2, hM2, rM3, hM4, and rM4 cell lines for use in calcium mobilization assays, these cells also were stably transfected with a chimeric G-protein (Gqi5) (provided by B. R. Conklin, University of California, San Francisco) using Lipofectamine® 2000. rM1, hM1, rM3, hM3, rM5, and hM5 cells were grown in Ham's F-12 medium containing 10% heat-inactivated fetal bovine serum (FBS), 20 mM HEPES, and 50 μg/mL G418 sulfate. rM2-Gqi5, hM2-Gqi5, and hM4-Gqi5 cells were grown in the same medium also containing 500 μg/mL hygromycin B. Stable rM4-Gqi5 cells were grown in DMEM containing 10% heat-inactivated FBS, 20 mM HEPES, 400 μg/mL G418 sulfate, and 500 μg/mL Hygromycin B.
For high throughput measurement of agonist-evoked increases in intracellular calcium, CHO-K1 cells stably expressing the target muscarinic receptor were plated in growth medium lacking G418 and hygromycin at 15,000 cells/20 μL/well in Greiner 384-well black-walled, tissue culture (TC)-treated, clear-bottom plates (VWR). Cells were incubated overnight at 37° C. and 5% CO2. The next day, cells were washed using an ELX 405 (BioTek) with four washes (80 μL) of assay buffer then aspirated to 20 μL. Next, 20 μL of 16 μM Fluo-4/acetoxymethyl ester (Invitrogen, Carlsbad, Calif.) prepared as a 2.3 mM stock in DMSO and mixed in a 1:1 ratio with 10% (w/v) Pluronic F-127 and diluted in assay buffer was added to the wells and the cell plates were incubated for […] at 37° C. and 5% CO2. Dye was removed by washing with the ELX 405 (four 80 μL washes of assay buffer) then aspirated to 20 μL. Compound master plates were formatted in an 11 point CRC format (1:3 dilutions) in 100% DMSO with a starting concentration of 10 mM using the BRAVO liquid handler (Agilent). Test compound CRCs were then transferred to daughter plates (240 nL) using the Echo acoustic plate reformatter (Labcyte, Sunnyvale, Calif.) and then diluted into assay buffer (40 μL) to a 2× stock using a Thermo Fisher Combi (Thermo Fisher Scientific, Waltham, Mass.).
Calcium flux was measured using the Functional Drug Screening System (FDSS) 6000 (Hamamatsu Corporation, Tokyo, Japan) as an increase in the fluorescent static ratio. Compounds were applied to cells (20 μL, 2×) using the automated system of the FDSS 6000 at 4 s into the 300 s protocol and the data were collected at 1 Hz. At 144 s into the 300 s protocol, 10 μL of an EC20 concentration of the muscarinic receptor agonist acetylcholine was added (5×), followed by the addition of 12 μL an EC80 concentration of acetylcholine at the 230 s time point (5×). Agonist activity was analyzed as a concentration-dependent increase in calcium mobilization upon compound addition. Positive allosteric modulator activity was analyzed as a concentration-dependent increase in the EC20 acetylcholine response. Antagonist activity was analyzed as a concentration-dependent decrease in the EC80 acetylcholine response. Concentration-response curves were generated using a four-parameter logistical equation in XLfit™ curve fitting software (IDBS, Bridgewater, N.J.) for Excel (Microsoft, Redmond, Wash.) or Prism (GraphPad Software, Inc., San Diego, Calif.). […]

Structure (SMILES): Nc1c2c(nc3ccccc13)CCCC2 [tacrine]
- hepatotoxicity with elevated liver transaminases observed in patients [1]: about 30 % of patients

Structure (SMILES): CCCCCCOc1nsnc1C1=CCCN(C)C1 [xanomeline]
- catalepsy ([2]; animal models): without causing catalepsy
- activity in animal models ([2]; compared with known antipsychotic drugs): active in animal models with similar profiles to known antipsychotic drugs
- psychotic behavioral symptoms such as delusions, suspiciousness, vocal outbursts, and hallucinations [3]: reduce psychotic behavioral symptoms
- treatment induced side effects [3]: gastrointestinal effects

Structure (SMILES): Cc1nnc2sc3c(NCC4CCN(C(=O)OC(C)(C)C)CC4)nn(C)c3c2c1C [Compound 21, tert-butyl 4-(((1,7,8-trimethyl-1H-pyrazolo[3′,4′:4,5]thieno[2,3-c]pyridazin-3-yl)amino)methyl)piperidine-1-carboxylate]
- Emax at 30 µM ([4]; %ACh maximum at 30 μM): 42%
- EC50 ([4]; rM4-transfected CHO-K1 cells, positive allosteric modulation of EC20 ACh response, read-out: EC50): 710 nM
